Reference: US10208071B2, “Use of agonists of formyl peptide receptor 2 for treating ocular inflammatory diseases” (Allergan, Inc., priority 2013, dated 2019)

Biological target: FPR2 (Homo sapiens (Human), UniProt P25090)
Test: FLIPR Ca+2 response, HEK-Gα16 cells stably expressing the human FPR2 receptor (Table 4)
Assay type: cell-based
Conditions: for FPR2 (efficacy): efficacy in parentheses
Procedure, shortened: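 HEK-Gα16 cells stably expressing human FPR2, loaded with 2 μM Fluo-4 in HBSS/20 mM HEPES for 40 min at 37° C., then washed. Ligands added in HBSS/Hepes and Ca+2 responses recorded on FLIPR in relative fluorescence units.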

Chain of FPR2 (P25090 whole entry): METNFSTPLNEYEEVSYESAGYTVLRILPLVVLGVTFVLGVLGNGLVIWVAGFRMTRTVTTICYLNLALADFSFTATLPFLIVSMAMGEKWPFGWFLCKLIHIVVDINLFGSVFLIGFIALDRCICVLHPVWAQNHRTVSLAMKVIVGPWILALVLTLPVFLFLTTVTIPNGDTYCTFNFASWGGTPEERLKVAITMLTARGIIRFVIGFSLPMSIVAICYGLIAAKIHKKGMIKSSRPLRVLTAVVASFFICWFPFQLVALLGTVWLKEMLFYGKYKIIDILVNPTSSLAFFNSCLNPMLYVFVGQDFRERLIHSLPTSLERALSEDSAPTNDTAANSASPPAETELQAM

Compound	EC50 [nM]	FPR2 (efficacy)
CC(C)C[C@H](NC(=O)Nc1ccc(Br)cc1)C(=O)N[C@@H](C)C(=O)O [Compound 90, (2S)-2-{[(2S)-2-{[(4-bromophenyl)carbamoyl]amino}-4-methylpentanoyl]amino} propanoic acid]	11.6	nM (1.0)
CC(C)C[C@H](NC(=O)Nc1ccc(Br)cc1)C(=O)N[C@H](C(=O)O)C(C)C [Compound 91, (2S)-2-{[(2S)-2-{[(4-bromophenyl)carbamoyl]amino}-4-methylpentanoyl]amino}-3-methylbutanoic acid]	1.7	nM (0.97)
CC(C)C[C@H](NC(=O)Nc1ccc(Br)cc1)C(=O)N[C@H](C(N)=O)C(C)C [Compound 92, (2S)-N-[(2S)-1-amino-3-methyl-1-oxobutan-2-yl]-2-{[(4-bromophenyl)carbamoyl]amino}-4-methylpentanamide]	5.8	nM (1.0)
CC(C)C[C@H](NC(=O)Nc1ccc(Br)cc1)C(=O)NCC(C)(C)O [Compound 93, (2S)-2-{[(4-bromophenyl)carbamoyl]amino}-N-(2-hydroxy-2-methylpropyl)-4-methylpentanamide]	2.5	nM (0.93)
CC(C)C[C@H](NC(=O)Nc1ccc(Br)cc1)C(=O)NC(CO)CO [Compound 94, (2S)-2-{[(4-bromophenyl)carbamoyl]amino}-N-(1,3-dihydroxypropan-2-yl)-4-methylpentanamide]	–	nM (0.96)
CC(C)C[C@H](NC(=O)Nc1ccc(Br)cc1)C(=O)NCC(O)CO (stereo partly drawn) [Compound 95, (2S)-2-{[(4-bromophenyl)carbamoyl]amino}-N-(2,3-dihydroxypropyl)-4-methylpentanamide]	–	nM (0.98)
CC(C)C[C@H](NC(=O)Nc1ccc(Br)cc1)C(=O)N[C@H](C)CO [Compound 96, (2S)-2-{[(4-bromophenyl)carbamoyl]amino}-N-[(2R)-1-hydroxypropan-2-yl]-4-methylpentanamide]	–	nM (1.0)
Cc1ccc(CCC2(C)NC(=O)N(NC(=O)Nc3ccc(Br)cc3)C2=O)o1 (stereo not drawn) [Compound 97, 1-(4-bromophenyl)-3-{4-methyl-4-[2-(5-methylfuran-2-yl)ethyl]-2,5-dioxoimidazolidin-1-yl}urea]	–	nM (0.95)
CC1(CCc2ccc(O)c(F)c2)NC(=O)N(NC(=O)Nc2ccc(Br)cc2F)C1=O (stereo not drawn) [Compound 98, 1-(4-bromo-2-fluorophenyl)-3-{4-[2-(3-fluoro-4-hydroxyphenyl)ethyl]-4-methyl-2,5-dioxoimidazolidin-1-yl}urea]	–	nM (0.91)
CC1(CCc2ccc(O)c(F)c2)NC(=O)N(NC(=O)Nc2ccc(Br)cc2)C1=O (stereo not drawn) [Compound 99, 1-(4-bromophenyl)-3-{4-[2-(3-fluoro-4-hydroxyphenyl)ethyl]-4-methyl-2,5-dioxoimidazolidin-1-yl}urea]	8	nM (1.0)
CCC[C@H](NC(=O)[C@H](CC(C)C)NC(=O)Nc1ccc(Br)cc1)C(=O)OC(C)(C)C [Compound 100, tert-butyl (2S)-2-{[(2S)-2-{[(4-bromophenyl)carbamoyl]amino}-4-methylpentanoyl]amino} pentanoate]	–	nM (1.0)
CCC[C@H](NC(=O)[C@H](CC(C)C)NC(=O)Nc1ccc(Br)cc1)C(=O)O [Compound 101, (2S)-2-{[(2S)-2-{[(4-bromophenyl)carbamoyl]amino}-4-methylpentanoyl]amino} pentanoic acid]	–	nM (0.95)
CCC[C@H](NC(=O)[C@H](CC(C)C)NC(=O)Nc1ccc(Br)cc1)C(N)=O [Compound 102, (2S)-N-[(2S)-1-amino-1-oxopentan-2-yl]-2-{[(4-bromophenyl)carbamoyl]amino}-4-methylpentanamide]	7.3	nM (0.99)
CC(C)C[C@H](NC(=O)Nc1ccc(Br)cc1)C(=O)N[C@H](C(=O)O)c1ccccc1 [Compound 103, (2S)-{[(2S)-2-{[(4-bromophenyl)carbamoyl]amino}-4-methylpentanoyl]amino} (phenyl)ethanoic acid]	–	nM (1.0)
CCOP(=O)(O)CNC(=O)[C@H](CC(C)C)NC(=O)Nc1ccc(Br)cc1 [Compound 105, ethyl hydrogen ({[(2S)-2-{[(4-bromophenyl)carbamoyl]amino}-4-methylpentanoyl]amino}methyl)phosphonate]	–	nM (0.88)
CCOP(=O)(CNC(=O)[C@H](CC(C)C)NC(=O)Nc1ccc(Br)cc1)OCC [Compound 112, diethyl ({[(2S)-2-{[(4-bromophenyl)carbamoyl]amino}-4-methylpentanoyl]amino}methyl)phosphonate]	0.48	–
CCOP(=O)(CNC(=O)[C@@H](NC(=O)Nc1ccc(Br)cc1)[C@@H](C)CC)OCC [Compound 114, diethyl ({[(2S,3S)-2-{[(4-bromophenyl)carbamoyl]amino}-3-methylpentanoyl]amino}methyl)phosphonate]	2.9	nM (1.0)
CCOP(=O)(O)CNC(=O)[C@@H](NC(=O)Nc1ccc(Br)cc1)[C@@H](C)CC [Compound 115, ethyl hydrogen ({[(2S,3S)-2-{[(4-bromophenyl)carbamoyl]amino}-3-methylpentanoyl]amino}methyl)phosphonate]	2.7	nM (0.88)
CC(C)C[C@H](NC(=O)Nc1ccc(Br)cc1)C(=O)NCc1cc(O)no1 [Compound 116, (2S)-2-{[(4-bromophenyl)carbamoyl]amino}-N-[(3-hydroxy-1,2-oxazol-5-yl)methyl]-4-methylpentanamide]	–	nM (1.0)
CCC[C@H](NC(=O)Nc1ccc(Br)cc1)C(=O)NCP(=O)(OCC)OCC [Compound 117, diethyl ({[(2S)-2-{[(4-bromophenyl)carbamoyl]amino}pentanoyl]amino}methyl) phosphonate]	0.27	nM (1.0)
CCOP(=O)(CNC(=O)[C@H](Cc1ccccc1)NC(=O)Nc1ccc(Br)cc1)OCC [Compound 118, diethyl ({[(2S)-2-{[(4-bromophenyl)carbamoyl]amino}-3-phenylpropanoyl]amino}methyl)phosphonate]	16.1	nM (0.93)
CCOP(=O)(CCNC(=O)[C@H](CC(C)C)NC(=O)Nc1ccc(Br)cc1)OCC [Compound 119, diethyl (2-{[(2S)-2-{[(4-bromophenyl)carbamoyl]amino}-4-methylpentanoyl]amino}ethyl) phosphonate]	16.1	–
CCC[C@H](NC(=O)Nc1ccc(Br)cc1)C(=O)NCP(=O)(O)OCC [Compound 123, ethyl hydrogen ({[(2S)-2-{[(4-bromophenyl)carbamoyl]amino}pentanoyl]amino}methyl) phosphonate]	–	nM (0.96)

More lines, now with the values ahead:

EC50 [nM]	FPR2 (efficacy)	Compound
–	nM (0.81)	CC(C)C[C@H](NC(=O)Nc1ccc(Br)cc1)C(=O)NCc1nnn[nH]1 [Compound 104, (2S)-2-{[(4-bromophenyl)carbamoyl]amino}-4-methyl-N-(1H-tetrazol-5-ylmethyl)pentanamide]
4	nM (0.91)	CC1(CCc2ccccc2O)NC(=O)N(NC(=O)Nc2ccc(Br)cc2F)C1=O (stereo not drawn) [Compound 106, 1-(4-bromo-2-fluorophenyl)-3-{4-[2-(2-hydroxyphenyl)ethyl]-4-methyl-2,5-dioxoimidazolidin-1-yl}urea]
2.2	nM (0.79)	CC1(CCc2cccc(O)c2)NC(=O)N(NC(=O)Nc2ccc(Br)cc2F)C1=O (stereo not drawn) [Compound 107, 1-(4-bromo-2-fluorophenyl)-3-{4-[2-(3-hydroxyphenyl)ethyl]-4-methyl-2,5-dioxoimidazolidin-1-yl}urea]
2.1	nM (1.0)	CC1(CCc2cccc(O)c2)NC(=O)N(NC(=O)Nc2ccc(Br)cc2)C1=O (stereo not drawn) [Compound 108, 1-(4-bromophenyl)-3-{4-[2-(3-hydroxyphenyl)ethyl]-4-methyl-2,5-dioxoimidazolidin-1-yl}urea]
–	nM (0.93)	CC1(CCc2ccccc2O)NC(=O)N(NC(=O)Nc2ccc(Br)cc2)C1=O (stereo not drawn) [Compound 109, 1-(4-bromophenyl)-3-{4-[2-(2-hydroxyphenyl)ethyl]-4-methyl-2,5-dioxoimidazolidin-1-yl}urea]
19.4	nM (0.98)	CC(C)CC(C)(NC(=O)Nc1ccc(Br)cc1)C(=O)O (stereo not drawn) [Compound 110, 2-{[(4-bromophenyl)carbamoyl]amino}-2,4-dimethylpentanoic acid]
19.1	nM (0.99)	CC(C)CC(C)(NC(=O)Nc1ccc(Br)cc1)C(=O)NCC(=O)O (stereo not drawn) [Compound 111, [(2-{[(4-bromophenyl)carbamoyl]amino}-2,4-dimethylpentanoyl)amino] acetic acid]
18.7	nM (1.0)	CCC(CC)(NC(=O)Nc1ccc(Br)cc1)C(=O)NCC(=O)O [Compound 113]
1.7	nM (0.99)	CC(C)C[C@H](NC(=O)Nc1ccc(Br)cc1)C(=O)NCC(=O)N(C)C [Compound 120, (2S)-2-{[(4-bromophenyl)carbamoyl]amino}-N-[2-(dimethylamino)-2-oxoethyl]-4-methylpentanamide]
4	nM (0.93)	CC(C)C[C@H](NC(=O)Nc1ccc(I)cc1)C(=O)O [Compound 121, (2S)-2-{[(4-iodophenyl)carbamoyl]amino}-4-methylpentanoic acid]
–	nM (1.0)	CC(C)C[C@H](NC(=O)Nc1ccc(C(F)(F)F)cc1)C(=O)NCC(=O)O [Compound 124, {[(2S)-4-methyl-2-({[4-(trifluoromethyl)phenyl]carbamoyl}amino)pentanoyl]amino}acetic acid]
1.2	nM (1.0)	CCC[C@H](NC(=O)Nc1ccc(Br)cc1)C(=O)NCP(=O)(OC(C)C)OC(C)C [Compound 125, dipropan-2-yl ({[(2S)-2-{[(4-bromophenyl)carbamoyl]amino}pentanoyl]amino}methyl) phosphonate]
